For one series, the target named is T1, Tubulin (Sus scrofa, UniProt P02550+P02554).
T1 construct: Tubulin is purified from pig brain according to published methods; from tissue; host or cells: pig brain
The series can be described thus: Evaluation of the inhibition of tubulin polymerization (turbidimetry at 350 nm). In kind it is biochemical. To be noted: concentration that inhibits the rate of polymerization by 50%; pig brain tubulin 10 μM. On the procedure: Briefly, the brains are ground and centrifuged in an extraction buffer. The tubulin contained in the supernatant of the extract undergoes two successive cycles of polymerization at 37° C. and depolymerization at 4° C., before being separated from the MAPs (Microtubule Associated Proteins) by chromatography on a phosphocellulose P11 column (Whatman). […] It is stored in a buffer known as RB/2 30% glycerol, the composition of which is 50 mM MES-NaOH [2-(N-morpholino)ethanesulphonic acid], pH 6.8; 0.25 mM MgCl2; 0.5 mM EGTA; 30% glycerol (v/v), 0.2 mM GTP (guanosine-5′-triphosphate).
The polymerization of tubulin to microtubules is monitored by turbidimetry as follows: the tubulin is adjusted to a concentration of 10 μM (1 mg/ml) in RB/2 30% glycerol buffer to which 1 mM GTP and 6 mM MgCl2 are added. […] The increase in the turbidity of the solution is monitored at 350 nm.
The products are dissolved at 10 mM in DMSO and added at variable concentrations (0.5 to 10 μM) to the tubulin solution before polymerization.

In series [1] the test system is HDMEC cells (Human Dermal Microvascular Endothelial Cells). The series can be described thus: Detachment of endothelial cells in vitro (test for determining the inhibition of vascularization). To be noted: two hours of treatment, relative to control (untreated cells); for inhibition at 1 µM: Homo sapiens, Endothelial cell, 2 h. In kind it is cell-based. From the text:
A test for determining the detachment of the endothelial cells was developed in order to select the products with regard to their “in vitro” activity. This test for determining the detachment of endothelial cells is characterized in that the endothelial cells, inoculated into plates whose bottom is covered with a binder preferably chosen from gelatin, fibronectin and vitronectin, after culturing, are supplemented with a medium containing the test compound, and the cells are then labelled with a fluorescent substance, the cells which have become detached are removed by washing and the fluorescence of the remaining cells is counted in a fluorimeter.
This test consists in measuring the detachment of endothelial cells cultured on substrata based on a binder preferably chosen from fibronectin, vitronectin and gelatin. Preferably, a day after the inoculation of the cells in plates containing, for example, 96 wells, the culture medium is replaced with a medium containing the test compound in the absence of serum. The same preparation is prepared six times at three different concentrations ([…]) and the control six times without addition of antivascular product. After two hours of treatment with the test substance, the cells are labelled with calcein-AM (1.6 μg/ml) in culture medium supplemented with 0.1% BSA. The cells that have become detached are removed by washing with the culture medium containing 0.1% bovine serum albumin; 100 μl of medium are added to each well. The fluorescence of the remaining cells is counted in a fluorimeter. The data obtained are expressed relative to the control (untreated cells).
The evaluation of the detachment of the endothelial cells in vitro is determined in the following manner. HDMEC cells (Human Dermal Microvascular Endothelial Cells, Promocell, c-122102) are cultured in an ECGM-MV medium that contains 5% foetal calf serum, growth factors (EGF 10 ng/ml, hydrocortisone 1 μg/ml, 0.4% growth supplement with heparin) and antibiotics (amphotericin 50 ng/ml, gentamycin 50 μg/ml). For the detachment test, the HDMECs are inoculated at a rate of 5 000 cells in clear-bottomed 96-well plates (Costar) precoated with fibronectin (10 μg/ml), vitronectin (1 μg/ml) or gelatin. Twenty-four hours later, the culture medium is replaced with ECGM-MV 0.1% BSA medium containing the products indicated. The concentrations tested are 0.1–0.3 and 1 μM for each product. After two hours of treatment, the cells are labelled for one hour with calcein (1.6 μg/ml, Molecular Probes) in ECGM-MV 0.1% BSA medium. The detached cells are then removed by washing with ECGM-MV 0.1% BSA medium; 100 μl of medium is added to each well. The fluorescence of the cells that remain attached to the substratum of the well is counted using a fluorimeter, Spectrafluor Plus (Tecan excitation 485 nm, and emission 535 nm). The data are the mean of six different samples and are expressed as the percentage of the control (untreated cells).
A cell detachment effect of greater than or equal to 15% is considered as significant.

Results on 20 molecules are retold here after patent US7119115B2, “Indazole or indole derivatives, and use thereof in human medicine and more particularly in oncology” (Aventis Pharma S.A., priority 2001, dated 2006).

T1 sequence (P02550 whole entry): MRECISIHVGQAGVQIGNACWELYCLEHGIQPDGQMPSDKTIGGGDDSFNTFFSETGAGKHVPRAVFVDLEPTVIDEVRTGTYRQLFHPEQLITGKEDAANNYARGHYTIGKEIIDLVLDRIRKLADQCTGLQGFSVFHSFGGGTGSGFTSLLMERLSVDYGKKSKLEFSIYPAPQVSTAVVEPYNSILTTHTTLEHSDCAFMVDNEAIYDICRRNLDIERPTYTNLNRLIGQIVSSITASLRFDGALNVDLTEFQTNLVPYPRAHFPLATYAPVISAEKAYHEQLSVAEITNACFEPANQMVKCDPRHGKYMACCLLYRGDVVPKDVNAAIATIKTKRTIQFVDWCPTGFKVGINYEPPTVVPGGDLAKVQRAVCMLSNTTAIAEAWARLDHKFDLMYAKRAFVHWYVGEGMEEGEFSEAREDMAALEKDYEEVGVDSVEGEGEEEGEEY
T1 sequence (P02554 whole entry): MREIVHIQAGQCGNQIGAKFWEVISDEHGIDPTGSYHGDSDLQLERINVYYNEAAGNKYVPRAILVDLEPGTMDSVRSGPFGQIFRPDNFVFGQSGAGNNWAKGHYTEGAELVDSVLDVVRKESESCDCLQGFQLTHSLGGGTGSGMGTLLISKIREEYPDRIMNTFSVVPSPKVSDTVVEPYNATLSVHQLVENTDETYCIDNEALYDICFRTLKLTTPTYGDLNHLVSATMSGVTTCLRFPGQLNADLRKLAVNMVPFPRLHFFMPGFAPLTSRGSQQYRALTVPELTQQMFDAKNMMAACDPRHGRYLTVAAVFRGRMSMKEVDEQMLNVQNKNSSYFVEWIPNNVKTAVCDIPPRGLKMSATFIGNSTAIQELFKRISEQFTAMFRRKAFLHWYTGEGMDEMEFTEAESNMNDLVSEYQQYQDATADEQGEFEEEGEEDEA

In general, IC50 refers to the concentration that inhibits the measured activity by half. Read a low IC50 as inhibition by little substance. For orientation: inhibition means the change of the read-out against control, counted positive when it falls. A higher inhibition goes with strong suppression. For the molecule `O=C(c1n[nH]c2c1C=CC(c1ccccc1)(c1ccccc1)C2)C1CCC1` [Example 5-2, Cyclobutyl(6,6-diphenyl-6,7-dihydro-1H-indazol-3-yl)methanone], at Tubulin, the IC50 turned out to be 1.1 µM. This molecule displayed an inhibition at 1 µM in series [1] of 19%.

Turning to `Cc1noc(-c2n[nH]c3c2C=CC(c2ccccc2)(c2ccccc2)C3)n1` [Example 8-1, 3-(3-Methyl[1,2,4]oxadiazol-5-yl)-6,6-diphenyl-6,7-dihydro-1H-indazole], half-maximal inhibition against Tubulin (IC50) was put at 9 µM. Besides, in series [1], the inhibition at 1 µM came out at 24%.

For the molecule `O/N=C(\c1n[nH]c2c1C=CC(c1ccc(F)cc1)(c1ccc(F)cc1)C2)C1CC1` [Example 10-8A, cyclopropyl[6,6-bis(4-fluorophenyl)-6,7-dihydro-1H-indazol-3-yl]methanone oxime], it took 1.5 µM to reach half-maximal inhibition against Tubulin (IC50). For the same molecule, in series [1], the inhibition at 1 µM amounted to 17%.

Molecule `ON=C(c1n[nH]c2c1C=CC(c1ccccc1)(c1ccccc1)C2)C1CCC1` [Example 6-2A, cyclobutyl(6,6-diphenyl-6,7-dihydro-1H-indazol-3-yl)methanone oxime] returned an IC50 on Tubulin of 1 µM. The molecule further came in with an inhibition at 1 µM in series [1] of 18%.

`CON=C(c1[nH]nc2c1C=CC(c1ccccc1)(c1ccccc1)C2)C1CC1` [Example 6-3A, cyclopropyl(6,6-diphenyl-6,7-dihydro-2H-indazol-3-yl)methanone O-methyloxime] gave an IC50 against Tubulin of 0.8 µM. At 1 µM the inhibition in series [1] was 26%.

For the molecule “(R,S)-cyclopropyl[6-(4-fluorophenyl)-6-phenyl-6,7-dihydro-1H-indazol-3-yl]methanone [Example 10-4A]”, at Tubulin, the midpoint of inhibition, the IC50, lay at 1 µM. Also, in series [1], the “% detachment 1 μM” value is reported as 33%.

The molecule `O=C(c1n[nH]c2c1C=CC(c1ccc(F)cc1)(c1ccc(F)cc1)C2)C1CC1` [Example 10-7, Cyclopropyl[6,6-bis(4-fluorophenyl)-6,7-dihydro-1H-indazol-3-yl]methanone] had an IC50 against Tubulin of 1 µM. For the same molecule, the inhibition at 1 µM in series [1] came to 24%.

The melting point is the temperature, or range, at which the solid turns liquid. Turning to `CON=Cc1n[nH]c2c1C=CC(c1ccccc1)(c1ccccc1)C2` (mixture of isomers) [Example 6-4, 6,6-diphenyl-6,7-dihydro-1H-indazole-3-carbaldehyde O-methyloxime], the melting point was found to be 184 °C. Moreover, the midpoint of inhibition against Tubulin, the IC50, lay at 6 µM.

On Tubulin, `CCOC(=O)c1c[nH]c2c1C=CC(c1ccccc1)(c1ccccc1)C2` [Example 12, Ethyl 6,6-diphenyl-6,7-dihydro-1H-indole-3-carboxylate] yielded an IC50 of 2 µM. The molecule also displayed an inhibition at 1 µM in series [1] of 17%.

On Tubulin, `C=CC(=O)n1nc(N)c2c1CC(c1ccccc1)(c1ccccc1)C=C2` [Example 7-2, 1-(3-Amino-6,6-diphenyl-6,7-dihydroindazol-1-yl)propenone] yielded an IC50 of 5 µM. This molecule showed an inhibition at 1 µM in series [1] of 25%.

Molecule `ON=C(c1n[nH]c2c1C=CC(c1ccccc1)(c1ccc(F)cc1)C2)C1CC1` (single isomer, unassigned) [Example 10-5A] yielded an IC50 on Tubulin of 1 µM. For the same molecule, in series [1], the inhibition at 1 µM is 25%.

Consider `O=C(c1n[nH]c2c1C=CC(c1ccccc1)(c1ccccc1)C2)C1CC1` [Example 5-1, Cyclopropyl(6,6-diphenyl-6,7-dihydro-1H-indazol-3-yl)methanone], for which inhibition at Tubulin was half-maximal at 0.8 µM (IC50). In series [1], the inhibition at 1 µM stood at 29%.

For `CCOC(=O)c1[nH]nc2c1C=CC(c1ccccc1)(c1ccccc1)C2` [Example 1, Ethyl 6,6-diphenyl-6,7-dihydro-2H-indazole-3-carboxylate], the IC50 against Tubulin is 1.5 µM. Moreover, the inhibition at 1 µM in series [1] came out at 20%.

On to `O=C(NC1CC1)c1n[nH]c2c1C=CC(c1ccccc1)(c1ccccc1)C2` [Example 3-1, N-(cyclopropyl)-6,6-diphenyl-6,7-dihydro-1H-indazole-3-carboxamide], for which the IC50 against Tubulin was determined as 2.5 µM. In series [1], this molecule returned an inhibition at 1 µM of 20%.

The molecule `C=CCO/N=C(\c1n[nH]c2c1C=CC(c1ccccc1)(c1ccccc1)C2)C1CC1` [Example 6-6A, cyclopropyl(6,6-diphenyl-6,7-dihydro-1H-indazol-3-yl)methanone O-allyloxime] yielded an IC50 against Tubulin of 1 µM. The molecule also showed an inhibition at 1 µM in series [1] of 17%.

For `O=C(Nc1n[nH]c2c1C=CC(c1ccccc1)(c1ccccc1)C2)c1ccccc1` [Example 7-4, N-[6,6-Diphenyl-6,7-dihydro-1H-indazol-3-yl]benzamide], on Tubulin, the IC50 was found to be 6 µM. In series [1], this molecule had an inhibition at 1 µM of 18%.

`ON=C(c1n[nH]c2c1C=CC(c1ccccc1)(c1ccccc1)C2)C1CC1` (single isomer, unassigned) [Example 6-1A, cyclopropyl(6,6-diphenyl-6,7-dihydro-1H-indazol-3-yl)methanone oxime]: the IC50 against Tubulin is 0.6 µM. The same molecule yielded an inhibition at 1 µM in series [1] of 34%.

`O=C(c1n[nH]c2c1C=CC(c1ccccc1)(c1ccccc1)C2)N1CCC1` [Example 3-2, Azetidin-1-yl(6,6-diphenyl-6,7-dihydro-1H-indazol-3-yl)methanone] showed a melting point of 285 °C. In addition, on Tubulin, the IC50 is 4.5 µM.

In turn, `CCOC(=O)c1n[nH]c2c1C=CC(c1ccccc1)(c1ccc(F)cc1)C2` (racemic) [Example 10-3A, ethyl (R,S)-6-(4-fluorophenyl)-6-phenyl-6,7-dihydro-1H-indazole-3-carboxylate] returned an IC50 on Tubulin of 1.2 µM. The molecule also came in with an inhibition at 1 µM in series [1] of 16%.

`CCOC(=O)c1n[nH]c2c1C=CC(c1ccccc1)(c1ccc(F)cc1)C2` (single isomer, unassigned) [Example 10-3B, ethyl 6-(4-fluorophenyl)-6-phenyl-6,7-dihydro-1H-indazole-3-carboxylate]: 1 µM corresponded to half-maximal inhibition at Tubulin (IC50). Moreover, the inhibition at 1 µM in series [1] turned out to be 19%.
